Reference: article PMC12410356 (International Journal for Parasitology: Drugs and Drug …, 2025)

Assays:
[1] = system: E. multilocularis metacestode vesicles; test: Metacestode vesicle viability assay (ATP, CellTiter-Glo); type: cell-based, Echinococcus multilocularis
Protocol: Viability was assessed after 12 days using the same metacestode vesicles as for the PGI release assay. Triton X-100 was added to each well to a final concentration of 0.1 %. Subsequently the metacestode vesicles were broken mechanically and 50 μL of the supernatant was mixed with 50 μL of CellTiter-Glo® buffer (Promega, Dübendorf, Switzerland). Measurements were performed on a HIDEX Sense microplate reader.

[2] = system: E. multilocularis metacestode vesicles; test: Phosphoglucose isomerase (PGI) release assay (damage-marker release) on metacestode vesicles; type: cell-based, Echinococcus multilocularis; details: 10 μM; for PGI d5 (relative PGI release): 5 days; for PGI d12 (relative PGI release): 12 days
[3] = overview screen, 10 μM, singlets, 12 days, relative to DMSO control
[4] = overview screen, singlets, relative to 0.1 % Triton X-100, DMSO subtracted
[5] = confirmation screen, 10 μM, triplicates, mean, 12 days
[6] = confirmation screen, triplicates, mean

Row | Compound | Viability d12 (relative viability) [1, 3] | PGI d5 (relative PGI release) [2, 4] | PGI d12 (relative PGI release) [2, 4] | Viability d12 (relative viability) [1, 5] | PGI d5 (relative PGI release) [2, 6] | PGI d12 (relative PGI release) [2, 6] | Viability d12 (relative viability) ([1]; 10 µM)
1 | C[Si]1(C)CCN(Cc2cc(-c3ccc(Cl)cc3)n(-c3ccc(Cl)cc3)n2)CC1 [MMV1580843] | 93.6293% | -0.6444% | -1.571% | – | – | – | –
2 | O=C(O)CSc1cc(NS(=O)(=O)c2cccc3cccnc23)c2ccccc2c1O [MMV218827] | 73.5027% | -0.1296% | 0.539% | – | – | – | –
3 | CCCNc1ccc(S(=O)(=O)Nc2cc(C)on2)cc1 [MMV1782216] | 105.791% | -2.087% | -24.1037% | – | – | – | –
4 | Fc1ccc(-n2cc(Cn3c(-c4cccc(F)c4)nc4ccccc43)nn2)cc1 [MMV1580850] | 34.9853% | -2.0582% | -24.0097% | – | – | – | –
5 | O=C(Cc1ccccc1F)Nc1nc2ccccc2[nH]1 [MMV1578576] | 28.1158% | 4.048% | 84.4551% | 92.12% | 0.17% | 0.0454% | –
6 | O=C(c1ccc(F)cc1)N1CCN2C(=O)c3ccccc3C12c1ccccc1 (stereo not drawn) [MMV1165877] | 23.1723% | 6.429% | 52.7291% | 130.42% | 0.55% | 0.41% | –
7 | CC(C)(C)c1ccc(Oc2ccc(N)cc2)cc1 [MMV1174026] | 305.195% | -0.5482% | 16.4911% | – | – | – | –
8 | COc1ccc(SCC(=O)N2c3ccccc3Sc3ccccc32)cc1 [MMV1578573] | 50.7662% | -3.455% | -10.5042% | – | – | – | –
9 | COc1cc(Cc2cnc(N)nc2N)cc(OC)c1OC [MMV000028] | 71.724% | -3.0237% | -24.4435% | – | – | – | –
10 | CC[C@@]1(O)C(=O)OCc2c1cc1n(c2=O)Cc2cc3c(CN(C)C)c(O)ccc3nc2-1.Cl [MMV1633678] | 288.666% | 0.263% | -2.724% | – | – | – | –
11 | NCC(=O)Nc1ccc(-n2nc(C(F)(F)F)cc2-c2ccc3c(ccc4ccccc43)c2)cc1 [MMV1578560] | 75.9823% | 3.295% | 35.9177% | – | – | – | –
12 | Nc1nc2c(Cc3cccnc3)c[nH]c2c(=O)[nH]1 [MMV1782355] | 81.2481% | -0.9111% | 0.236% | – | – | – | –
13 | CCOc1noc2cc(OCCC3CCN(c4ccc(C)nn4)CC3)ccc12 [MMV1634071] | 88.166% | 0.1516% | -20.1339% | – | – | – | –
14 | CN(Cc1ccc(C(C)(C)C)cc1)Cc1cccc2ccccc12.Cl [MMV637104] | 73.8114% | -1.862% | -24.2411% | – | – | – | –
15 | C[N+]1(C)CCCC(OC(=O)C(O)(c2ccccc2)c2ccccc2)C1 (stereo not drawn) [MMV002676] | 80.9524% | -4.414% | -4.73% | – | – | – | –
16 | C=C[C@]1(C)C[C@@H](OC(=O)CS[C@@H]2C[C@H]3CC[C@@H](C2)N3C)[C@]2(C)[C@H](C)CC[C@]3(CCC(=O)[C@H]32)[C@@H](C)[C@@H]1O [MMV1633674] | – | -1.377% | 19.1844% | – | – | – | 92.0635%
17 | CN(C(=O)C1(c2ccc(Cl)cc2)CCC1)c1ccccc1 [MMV1581030] | 114.111% | 0.6829% | -0.7665% | – | – | – | –

Row | Compound | Viability d12 (relative viability) [1, 3] | PGI d5 (relative PGI release) [2, 4] | PGI d12 (relative PGI release) [2, 4] | Viability d12 (relative viability) [1, 5] | PGI d5 (relative PGI release) [2, 6] | PGI d12 (relative PGI release) [2, 6] | Viability d12 (relative viability) ([1]; 10 µM)
18 | O=C1CCC(N2C(=O)c3ccccc3C2=O)C(=O)N1 (stereo not drawn) [MMV002612] | – | -1.046% | -2.884% | – | – | – | 99.2866%
19 | N[C@H](CCC(=O)N[C@@H](Cc1c[nH]c2ccccc12)C(=O)O)C(=O)O [MMV1581033] | 121.646% | 0.0006202% | -0.6563% | – | – | – | –
20 | NC(=O)[C@@H]1CC[C@@H]2CN1C(=O)N2OS(=O)(=O)O [MMV1613560] | 46.8418% | -1.526% | -13.4159% | – | – | – | –
21 | CCc1c(O)nc2ccc(F)cc2c1OCC1CCC1 [MMV1634395] | 119.991% | -0.4952% | -17.3568% | – | – | – | –
22 | O=C(CP(=O)(O)O)NCCc1cccc(Oc2ccccc2)c1 [MMV1579787] | 61.3703% | -1.804% | -11.6628% | – | – | – | –
23 | Cc1ccccc1NC(=O)Nc1cccc([N+](=O)[O-])c1 [MMV1581029] | 89.4166% | 1.329% | -16.6439% | – | – | – | –
24 | CCCCc1ccc(C(=O)O)nc1 [MMV001726] | 162.188% | -0.06574% | -20.229% | – | – | – | –
25 | CN(O)C(=O)c1cc2c(CN3CCC[C@H]3C(N)=O)cn(Cc3ccc(F)cc3)c2cn1 [MMV1782386] | 103.448% | 0.7573% | -1.18% | – | – | – | –
26 | CCc1nc2ccccn2c1C(=O)NCc1ccccc1 [MMV1663457] | 46.6749% | -2.34% | -12.7903% | – | – | – | –
27 | C[C@@H]1O[C@@H]1P(=O)(O)O [MMV002354] | 22.2102% | 4.505% | -11.1824% | – | – | – | –
28 | O=S(=O)(Nc1ccc(-n2cccc2)cc1)c1ccc(Cl)c(Cl)c1 [MMV1505642] | 76.9008% | -0.09064% | -9.692% | – | – | – | –
29 | Cl.Cl.NCCCc1ccccc1C(=O)Nc1ncc([N+](=O)O)s1 [MMV1579786] | 116.729% | -0.3411% | -16.376% | – | – | – | –
30 | CCOC(=O)N1CCN(c2ccc(Cl)cc2)CC1 [MMV1578898] | 47.7603% | -0.03171% | 1.172% | – | – | – | –
31 | CC(C)c1ccc(COc2cccc(-c3cc([S+](C)[O-])c(C#N)c(=O)[nH]3)c2)cc1 (stereo not drawn) [MMV1582497] | 210.079% | 3.781% | -9.364% | – | – | – | –
32 | O=C(NCCN1CCCCC1)c1cccc(C(F)(F)F)c1 [MMV1633964] | 94.8358% | 0.4856% | -18.3006% | – | – | – | –
33 | O=c1oc2ccc(Br)cc2cc1CSc1ncc[nH]1 [MMV1782105] | 107.746% | 1.562% | -17.9407% | – | – | – | –
